Each block holds one compound with its values, some of them ahead of it.
Key:
[1] = Stability constant (binding ability) towards manganese; conditions: relative to the EDTA chelate
[2] = in vivo; cited from earlier work
[3] = Relaxivities (T1, T2) of protons in water exposed to the complexes; format: physicochemical; conditions: Table 5
Procedure: (§1) c) Relaxitivities of protons present in water and plasma exposed to the complexes of (a) and (b) (at 10 mHz) (37° C.) in milliseconds:
(§2) c) Relaxivities of protons present in water and plasma exposed to (a) and (b) at 10 mHz (37 C) in milliseconds: […]

[4] = in vivo; cited from earlier work; remark: listed apart in the source
[5] = Relaxivities (T1, T2) of protons in plasma exposed to the complexes; format: physicochemical
Procedure: as §1, §2

[6] = in vivo
[7] = Table 5, 1.56 × 10^-3 moles/liter
[8] = Table 5, 3.13 × 10^-3 moles/liter
[9] = Table 5, 6.25 × 10^-3 moles/liter

SMILES: O=C(O)CN(CC(=O)O)[C@@H]1CCCC[C@H]1N(CC(=O)O)CC(=O)O (relative stereo) [DCTA, trans-N,N,N',N'-tetra-carboxymethyl-1,2-diaminocyclohexane]
- Stability constant (binding ability) towards manganese [1]: several thousand times better

- T1 water ([3]; 1.56 × 10^-3 moles/liter): 163 ms
- T2 water ([3]; 1.56 × 10^-3 moles/liter): 155 ms
- T1 water ([3]; 1.95 × 10^-4 moles/liter): 1015 ms
- T1 water ([3]; 3.13 × 10^-3 moles/liter): 83 ms
- T2 water ([3]; 3.13 × 10^-3 moles/liter): 76 ms
- T1 water ([3]; 3.91 × 10^-4 moles/liter): 582 ms
- T1 water ([3]; 6.25 × 10^-3 moles/liter): 40 ms
- T2 water ([3]; 6.25 × 10^-3 moles/liter): 35 ms
- T1 water ([3]; 7.81 × 10^-4 moles/liter): 309 ms
- T1 plasma ([5]; 9.77 × 10^-5 moles/liter): 877 ms
- T1 plasma [5, 7]: 134 ms
- T2 plasma [5, 7]: 116 ms
- T1 plasma ([5]; Table 5, 1.95 × 10^-4 moles/liter): 636 ms
- T1 plasma [5, 8]: 69 ms
- T2 plasma [5, 8]: 61 ms
- T1 plasma ([5]; Table 5, 3.91 × 10^-4 moles/liter): 405 ms
- T1 plasma [5, 9]: 39 ms
- T2 plasma [5, 9]: 31 ms
- T1 plasma ([5]; Table 5, 7.81 × 10^-4 moles/liter): 240 ms
SMILES: O=C([O-])CN(CCN(CC(=O)[O-])CC(=O)O)CCN(CC(=O)[O-])CC(=O)O.[Gd+3] [Gd DTPA, gadolinium chelate of diethylene-triamine-pentaacetic acid]
- Post T1 fat [2]: 185 milliseconds
- Post T1 kidneys [2]: 205 milliseconds
- Post T1 liver [2]: 195 milliseconds
- Post T1 muscle [2]: 335 milliseconds
- Post T1 spleen [2]: 285 milliseconds
- Uptake by solid organs [4]: virtually no uptake by any solid organ
- Organ distribution [6]: does not substantially interact with the hepatobiliary system

Reference: patent US5039512A, “NMR imaging with paramagnetic polyvalent metal salts of poly-(acid-alkylene-amino)-alkanes” (Salutar, Inc., priority 1987, dated 1991)
